Our source for the IC50 values is patent US10464927B2, “2,4-disubstituted pyrimidines as CDK inhibitors” (Shanghai Xunhe Pharmaceutical Technology Co. Ltd., priority 2016, dated 2019).

SMILES strings stand for the structures. Some results are limits rather than exact numbers.

The target in one test is CDK4 (Homo sapiens (Human), UniProt P11802). Kind of test: CDK4 protein kinase activity, Caliper mobility shift assay. Type of test: biochemical. To be noted: GST-CDK4(1-303 end), substrate Peptide FAM-P8, 28° C. for 3 h. How it is done: (§1) activity assay: The CDK4 protein kinase activity was measured using the Caliper mobility shift assay (see J. Biomol. Screen, 2009, PP31). The test compound was dissolved in DMSO and diluted with a kinase buffer solution (20 mM HEPES-pH 7.5, 0.01% Triton X-100, 10 mM MgCl2, 2 mM DTT) and 5 μL of compound at 5-fold final concentration of reaction dissolved in 10% DMSO was added in a 384-well plate. The compound-free control well was 5 μL of 10% DMSO, and the no-activity control well was 5 μL of kinase buffer. 10 μL of a 2.5-fold diluted CDK4 enzyme solution (GST-CDK4(1-303 end)) was added and incubated at room temperature for 10 min, and then 10 μL of the 2.5-fold diluted substrate solution Peptide FAM-P8 was added. The reaction was stopped by adding 25 μL of stop solution after incubation at 28° C. for 3 h, and the conversion rate data was read on a Caliper EZ Reader II (Caliper Life Sciences) and the conversion rate was converted to inhibition rate data according to above method. Among them, the inhibition rate %=(max−conversion)/(max−min)×100%.
Sequence of CDK4 (P11802 whole entry): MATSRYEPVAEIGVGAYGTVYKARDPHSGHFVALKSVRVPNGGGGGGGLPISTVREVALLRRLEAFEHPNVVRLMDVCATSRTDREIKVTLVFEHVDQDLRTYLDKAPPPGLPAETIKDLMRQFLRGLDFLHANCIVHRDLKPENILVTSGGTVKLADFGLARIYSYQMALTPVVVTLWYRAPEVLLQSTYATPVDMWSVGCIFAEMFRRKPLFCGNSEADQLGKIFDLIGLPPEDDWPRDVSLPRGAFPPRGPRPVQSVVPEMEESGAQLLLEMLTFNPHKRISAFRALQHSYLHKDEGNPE
Sequence of CDK4 (P30281 whole entry partner): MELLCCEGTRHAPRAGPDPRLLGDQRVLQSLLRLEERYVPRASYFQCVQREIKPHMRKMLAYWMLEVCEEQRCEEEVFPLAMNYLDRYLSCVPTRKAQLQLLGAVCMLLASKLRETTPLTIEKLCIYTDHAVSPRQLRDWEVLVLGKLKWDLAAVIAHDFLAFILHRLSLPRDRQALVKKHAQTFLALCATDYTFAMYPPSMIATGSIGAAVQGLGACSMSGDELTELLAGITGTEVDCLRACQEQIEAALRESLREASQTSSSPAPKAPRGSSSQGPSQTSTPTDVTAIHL

A further test addresses CDK6 (Homo sapiens (Human), UniProt Q00534). The test is described as follows: CDK6 protein kinase activity, Caliper mobility shift assay. Type of test: biochemical. Conditions: GST-CDK6(1-326 end), substrate Peptide FAM-P8, 28° C. for 3 h. How it is done: as §1, with “Activity Assay:” for “activity assay:”, “CDK6” for “CDK4”, “(GST-CDK6(1-326” for “(GST-CDK4(1-303”

Sequence of CDK6 (Q00534 whole entry): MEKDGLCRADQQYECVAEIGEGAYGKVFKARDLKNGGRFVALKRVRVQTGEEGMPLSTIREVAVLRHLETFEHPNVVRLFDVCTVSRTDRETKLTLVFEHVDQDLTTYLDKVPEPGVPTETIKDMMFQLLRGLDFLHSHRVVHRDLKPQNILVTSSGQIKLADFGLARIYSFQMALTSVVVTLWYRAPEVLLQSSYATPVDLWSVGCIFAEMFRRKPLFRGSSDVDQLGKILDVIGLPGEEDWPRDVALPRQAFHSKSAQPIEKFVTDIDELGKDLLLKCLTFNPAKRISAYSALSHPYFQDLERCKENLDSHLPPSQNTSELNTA
Sequence of CDK6 (P30281 whole entry partner): as the sequence (P30281 whole entry partner) above

Usually IC50 stands for the concentration that gives 50% inhibition. As to `Fc1cnc(Nc2ccc(CN3CCN(C4CCCCCC4)CC3)cn2)nc1-c1ccc2c(c1)c(C1CC1)cn2C1CCC1` [Compound I-18, N-(5-(4-cycloheptylpiperazine-1-methyl)-pyridin-2-yl)-5-fluoro-4-(1-cyclobutyl-3-cyclopropyl-1H-indol-5-yl)pyrimidin-2-amine], the IC50 on CDK4 and on CDK6 was ≤ 20 nM throughout.
As for `CCN1CCN(Cc2ccc(Nc3ncc(F)c(-c4ccc5c(ccn5C(C)C)c4)n3)nc2)CC1` [Compound I-1, N-(5-(4-ethylpiperazine-1-methyl)-pyridin-2-yl)-5-fluoro-4-(1-isopropyl-1H-indol-5-yl)-pyrimidin-2-amine], the IC50 at CDK4 and on CDK6 was ≤ 20 nM throughout.
With `CCN1CCN(Cc2ccc(Nc3ncc(F)c(-c4ccc5c(n4)c(C(F)(F)F)nn5C4CCCC4)n3)nc2)CC1` [Compound I-46, N-(5-(4-ethylpiperazine-1-methyl)-pyridin-2-yl)-5-fluoro-4-(1-cyclopentyl-3-trifluoromethyl-4-aza-1H-indazol-5-yl)pyrimidin-2-amine], the IC50 at CDK4 and at CDK6 was 20 to 100 nM each time.
Take `CCN1CCN(Cc2ccc(Nc3ncc(F)c(-c4ccc5ncc(C#N)n5c4)n3)nc2)CC1` [Compound I-34, N-(5-(4-ethylpiperazine-1-methyl)-pyridin-2-yl)-5-fluoro-4-(3-cyano-imidazo[1,2-a]pyridin-6-yl)pyrimidin-2-amine]: the 50% inhibitory concentration (IC50) at CDK4 and on CDK6 was ≤ 20 nM throughout.
Take `CCN1CCN(Cc2ccc(Nc3ncc(F)c(-c4ncc5nc(C(=O)N(C)C)n(C)c5n4)n3)nc2)CC1` [Compound I-40, N-(5-(4-ethylpiperazin-1-methyl)-pyridin-2-yl)-5-fluoro-4-(9-methyl-8-formic acid diformamido-9H-purin-2-yl)pyrimidin-2-amine]: the IC50 at CDK4 and on CDK6 was ≤ 20 nM each time.
As to `Fc1cnc(Nc2ccc(CN3CCN(C4CCCCC4)CC3)cn2)nc1-c1ccc2c(c1)c(C1CCC1)cn2C1CCCCC1` [Compound I-19, N-(5-(4-cyclohexylpiperazin-1-methyl)-pyridin-2-yl)-5-fluoro-4-(1-cyclohexyl-3-cyclobutyl-1H-indol-5-yl)pyrimidin-2-amine], the IC50 at CDK4 was ≤ 20 nM; at CDK6, > 500 nM.
In the case of `CCN1CCN(Cc2ccc(Nc3ncc(F)c(-c4ccc5nnc(C6CC6)n5c4)n3)nc2)CC1` [Compound I-36, N-(5-(4-ethylpiperazin-1-methyl)-pyridin-2-yl)-5-fluoro-4-(3-cyclopropyl-[1,2,4]triazolo[4,3-a]pyridin-6-yl)pyrimidin-2-amine], the IC50 at CDK4 and at CDK6 was ≤ 20 nM in each case.
For the molecule `CCN1CCN(Cc2ccc(Nc3ncc(F)c(-c4ccc5nnc(C(C)C)n5c4)n3)nc2)CC1` [Compound I-6, N-(5-(4-ethylpiperazine-1-methyl)-pyridin-2-yl)-5-fluoro-4-(3-isopropyl-[1,2,4]triazolo[4,3-a]pyridin-6-yl)pyrimidin-2-amine], the IC50 is ≤ 20 nM at CDK4 and 20 to 100 nM at CDK6.
`CCN1CCN(Cc2ccc(Nc3ncc(F)c(-c4ncc5nc(C)n(C(C)C)c5n4)n3)nc2)CC1` [Compound I-9, N-(5-(4-ethylpiperazine-1-methyl)-pyridin-2-yl)-5-fluoro-4-(9-isopropyl-8-methyl-9H-purin-2-yl)pyrimidin-2-amine]: the half-maximal inhibitory concentration (IC50) on CDK4 and at CDK6 was 20 to 100 nM throughout.
Consider `CC(C)c1c(C#N)n(C2CC2)c2ccc(-c3nc(Nc4ccc(CN5CCN(C6CC6)CC5)cn4)ncc3F)cc12` [Compound I-17, N-(5-(4-cyclopropylpiperazine-1-methyl)-pyridin-2-yl)-5-fluoro-4-(1-cyclopropyl-2-cyano-3-isopropyl-1H-indol-5-yl)pyrimidin-2-amine], for which, on CDK6, the IC50 is 20 to 100 nM.
Regarding `Cn1nc2nc(-c3nc(Nc4ccc(N5CCNCC5)cn4)ncc3F)ccc2c1C1CCCC1` [Compound I-12, N-(5-(piperazin-1-yl)-pyridin-2-yl)-5-fluoro-4-(2-methyl-3-cyclopentyl-2H-7-azaindazol-6-yl)pyrimidin-2-amine], the IC50 at CDK4 and on CDK6 was ≤ 20 nM in each case.
In the case of `CC(C)c1nnc2ccc(-c3nc(Nc4ccc(N5CCNCC5)cn4)ncc3F)cn12` [Compound I-7, N-(5-(piperazin-1-yl)-pyridin-2-yl)-5-fluoro-4-(3-isopropyl-[1,2,4]triazolo[4,3-a]pyridine-6-yl)pyrimidin-2-amine], the IC50 at CDK4 and at CDK6 was ≤ 20 nM in each case.
Regarding `CC(=O)c1c2ccc(-c3nc(Nc4ccc(N5CCNCC5)cn4)ncc3F)nc2nn1C1CC1` [Compound I-29, N-(5-(piperazin-1-yl)-pyridin-2-yl)-5-fluoro-4-(2-cyclopropyl-3-acetyl-2H-7-azaindazol-6-yl)pyrimidin-2-amine], the IC50 at CDK4 and at CDK6 was ≤ 20 nM throughout.
With `CC(=O)c1cn(C2CCCC2)c2ccc(-c3nc(Nc4ccc(N5CCNCC5)cn4)ncc3F)cc12` [Compound I-3, N-(5-(piperazin-1-yl)-pyridin-2-yl)-5-fluoro-4-(1-cyclopentyl-3-acetyl-1H-indol-5-yl)pyrimidin-2-amine], the IC50 at CDK4 and on CDK6 was ≤ 20 nM in each case.
For the molecule `CCN1CCN(Cc2ccc(Nc3ncc(F)c(-c4ccc5c(c4)cc(C(C)=O)n5C(C)C)n3)nc2)CC1` [Compound I-24, N-(5-(4-ethylpiperazine-1-methyl)-pyridin-2-yl)-5-fluoro-4-(1-isopropyl-2-acetyl-1H-indol-5-yl)pyrimidin-2-amine], the IC50 on CDK4 and at CDK6 was ≤ 20 nM throughout.
Take `CCN1CCN(Cc2ccc(Nc3ncc(F)c(-c4ccc5nnc(C(C)=O)n5c4)n3)nc2)CC1` [Compound I-35, N-(5-(4-ethylpiperazine-1-methyl)-pyridin-2-yl)-5-fluoro-4-(3-acetyl-[1,2,4]triazolo[4,3-a]pyridin-6-yl)pyrimidin-2-amine]: the IC50 on CDK4 and on CDK6 was 20 to 100 nM each time.
Take `CC(C)c1c2ccc(-c3nc(Nc4ccc(N5CCNCC5)cn4)ncc3F)c(Cl)c2nn1C` [Compound I-30, N-(5-(piperazin-1-yl)-pyridin-2-yl)-5-fluoro-4-(2-methyl-3-isopropyl-2H-7-chloro-indazol-6-yl)pyrimidin-2-amine]: the IC50 at CDK6 was in the range of 20 to 100 nM.
As for `Cc1nc2cnc(-c3nc(Nc4ccc(N5CCN(C)CC5)cn4)ncc3F)nc2n1C(C)C` [Compound I-47, N-(5-(4-methylpiperazin-1-yl)-pyridin-2-yl)-5-fluoro-4-(9-isopropyl-8-methyl-9H-purin-2-yl)pyrimidin-2-amine], the figures for the IC50 on CDK4 and at CDK6 were ≤ 20 nM and 20 to 100 nM, respectively.
On the same counts, the results for `CN1CCN(c2ccc(Nc3ncc(F)c(-c4ncc5nc(C(=O)N(C)C)n(C6CCCC6)c5n4)n3)nc2)CC1` [Compound I-37] are ≤ 20 nM and 20 to 100 nM.
With `CN(C)C(=O)c1nn(C2CCCC2)c2ccc(-c3nc(Nc4ccc(N5CCNCC5)cn4)ncc3F)cc12` [Compound I-43, N-(5-(piperazin-1-yl)-pyridin-2-yl)-5-fluoro-4-(1-cyclopentyl-3-formic acid diformamido-1H-indazol-5-yl)pyrimidin-2-amine], the 50% inhibitory concentration (IC50) on CDK4 and on CDK6 was ≤ 20 nM in each case.
`CC(C)n1ccc2cc(-c3nc(Nc4ccc(N5CCNCC5)cn4)ncc3F)ccc21` [Compound I-2, N-(5-(piperazin-1-yl)-pyridin-2-yl)-5-fluoro-4-(1-isopropyl-1H-indol-5-yl)pyrimidine 2-amine]: the IC50 on CDK4 and at CDK6 was ≤ 20 nM throughout.
As for `CCN1CCN(Cc2ccc(Nc3ncc(F)c(-c4ccc5c(cc(C(=O)N(C)C)n5C(C)C)n4)n3)nc2)CC1` [Compound I-26, N-(5-(4-ethylpiperazine-1-methyl)-pyridin-2-yl)-5-fluoro-4-(1-isopropyl-2-formic acid diformamido-1H-4-azaindol-5-yl)pyrimidin-2-amine], the results for the IC50 on CDK4 and at CDK6 were ≤ 20 nM and 20 to 100 nM, respectively.
In the case of `CCC(CC)n1c(C(C)=O)cc2cc(-c3nc(Nc4ccc(CN5CCN(C)CC5)cn4)ncc3Cl)ccc21` [Compound I-15, N-(5-(4-methylpiperazine-1-methyl)-pyridin-2-yl)-5-chloro-4-(1-(3-pentyl)-2-acetyl-1H-indol-5-yl)pyrimidin-2-amine], the values for the half-maximal inhibitory concentration (IC50) on CDK4 and at CDK6 were 100 to 500 nM and 20 to 100 nM, respectively.
